Values joined by “and” are separate entries in the source; they are usually repeats but may differ in a detail not shown here. Equal entries are not always repeated. Toxic doses and inconclusive results are not listed. Numbered stars: 1 amine (or outer) side, 2 acyl side, 3 side chain; on linkers, the order of the positions; unused ones are H or OH. Bridge positions count the residues as written; N and C are the ends. Square brackets hold non-standard residues; d marks the D form. Peptide text beside a SMILES is read from it. I, II: the chains in the order shown. ξ: configuration not given here. Actinocin(9to1) = Cc1c2oc3c(C)ccc(C(=O)[*:1])c3nc-2c(C(=O)[*:2])c(N)c1=O; ξPro(4ξ-Me) = CC1CNC(C(=O)O)C1; NMeV = CN[CH](C(=O)O)C(C)C; Sar = CNCC(=O)O
Test system: BDF1 mice, B16 melanoma ip, median survival T/C
Experiment: NCI In Vivo Anticancer Drug Screen. Data for tumor model B16 Melanoma (intraperitoneal) in B6D2F1 (BDF1) mice
Details: endpoint: median survival time, higher = longer survival
Summary of the method: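 Antitumor activity is assessed in mice bearing a transplanted tumor, with survival or tumor size compared against vehicle-dosed controls and expressed as T/C.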

[1] = dose: 12.5 mg/kg/injection, schedule: Q01DX009 (ip), vehicle: Klucel (hydroxypropylcellulose) (HPC)
[2] = dose: 25.0 mg/kg/injection, schedule: Q01DX009 (ip), vehicle: Klucel (hydroxypropylcellulose) (HPC)
[3] = dose: 50.0 mg/kg/injection, schedule: Q01DX009 (ip), vehicle: Klucel (hydroxypropylcellulose) (HPC)
[4] = dose: 6.25 mg/kg/injection, schedule: Q01DX009 (ip), vehicle: Klucel (hydroxypropylcellulose) (HPC)
[5] = dose: 100.0 mg/kg/injection, schedule: Q01DX009 (ip), vehicle: saline with Tween-80
[6] = dose: 200.0 mg/kg/injection, schedule: Q01DX009 (ip), vehicle: saline with Tween-80
[7] = dose: 400.0 mg/kg/injection, schedule: Q01DX009 (ip), vehicle: saline with Tween-80
[8] = dose: 100.0 mg/kg/injection, schedule: Q01DX009 (ip), vehicle: Klucel (hydroxypropylcellulose) (HPC)
[9] = dose: 200.0 mg/kg/injection, schedule: Q01DX009 (ip), vehicle: Klucel (hydroxypropylcellulose) (HPC)
[10] = dose: 400.0 mg/kg/injection, schedule: Q01DX009 (ip), vehicle: Klucel (hydroxypropylcellulose) (HPC)

Structure (SMILES): N#CCCNC(Cc1ccc(O)cc1)C(=O)O (centres undefined)
- T/C [1]: 109 % of control
- T/C [2]: 100 % of control
- T/C [3]: 88 % of control
- T/C (dose: 56.25 mg/kg/injection, schedule: Q04DX003 (ip), vehicle: Klucel (hydroxypropylcellulose) (HPC)): 95 % of control
- T/C (dose: 75.0 mg/kg/injection, schedule: Q01DX009 (ip), vehicle: Klucel (hydroxypropylcellulose) (HPC)): 116 % of control
- T/C (dose: 112.5 mg/kg/injection, schedule: Q04DX003 (ip), vehicle: Klucel (hydroxypropylcellulose) (HPC)): 105 % of control

Structure (SMILES): CC[N+](CC)(CC)CC.N#C/C([SH2+])=C(/[SH2+])C#N.N#C/C([SH2+])=C(/[SH2+])C#N.[Cu+2]
- T/C (dose: 12.5 mg/kg/injection, schedule: Q04DX003 (ip), vehicle: Klucel (hydroxypropylcellulose) (HPC)): 92 % of control
- T/C (dose: 25.0 mg/kg/injection, schedule: Q04DX003 (ip), vehicle: Klucel (hydroxypropylcellulose) (HPC)): 89 % of control

Structure (SMILES): S=C=NCC(Br)CBr (centres undefined)
- T/C [4]: 86 % of control
- T/C [1]: 86 % of control

Structure (SMILES): CCOc1ccc(NC(=O)Nc2cccc3ccccc23)cc1
- T/C (dose: 1.56 mg/kg/injection, schedule: Q01DX009 (ip), vehicle: Klucel (hydroxypropylcellulose) (HPC)): 91 % of control
- T/C (dose: 3.13 mg/kg/injection, schedule: Q01DX009 (ip), vehicle: Klucel (hydroxypropylcellulose) (HPC)): 91 % of control
- T/C [4]: 86 % of control and 91 % of control

Structure (SMILES): CN(C)CCCn1c2c(c3ccccc31)CCCCCC2
- T/C (dose: 3.12 mg/kg/injection, schedule: Q01DX009 (ip), vehicle: saline): 119 % of control
- T/C (dose: 6.25 mg/kg/injection, schedule: Q01DX009 (ip), vehicle: saline): 100 % of control
- T/C (dose: 12.5 mg/kg/injection, schedule: Q01DX009 (ip), vehicle: saline): 100 % of control
- T/C (dose: 25.0 mg/kg/injection, schedule: Q01DX009 (ip), vehicle: saline): 113 % of control
- T/C (dose: 50.0 mg/kg/injection, schedule: Q01DX009 (ip), vehicle: saline): 94 % of control

Structure (SMILES): NC(=O)NC1CCCCCC1
- T/C [5]: 108 % of control
- T/C [6]: 104 % of control
- T/C [7]: 95 % of control

Structure (SMILES): CCN(N=Nc1ccc(C)cc1)N=Nc1ccc(C)cc1
- T/C [8]: 90 % of control
- T/C [9]: 96 % of control
- T/C [10]: 86 % of control

Structure (SMILES): CCCCCCCCC(=O)OCCNC(=O)C(C)OC(=O)CCCCCCCC (centres undefined)
- T/C [2]: 102 % of control
- T/C [3]: 103 % of control
- T/C [8]: 92 % of control

Structure (SMILES): C1CC[N-]CC1.CC(=N\O)/C(C)=N/O.CC(=N\O)/C(C)=N/O.C[CH-]CC.[Co+2]
- T/C [2]: 102 % of control
- T/C [3]: 108 % of control

Structure (SMILES): O=C(O)C(O)C(=O)O.[NH2-].[NH2-].[Pt+2]
- T/C (dose: 1.0 mg/kg/injection, schedule: Q01DX009 (ip), vehicle: other): 104 % of control
- T/C (dose: 8.0 mg/kg/injection, schedule: Q01DX009 (ip), vehicle: other): 156 % of control and 175 % of control and 192 % of control
- T/C (dose: 16.0 mg/kg/injection, schedule: Q01DX009 (ip), vehicle: other): 197 % of control and 288 % of control and 300 % of control
- T/C (dose: 32.0 mg/kg/injection, schedule: Q01DX009 (ip), vehicle: other): 281 % of control

Structure (SMILES): NC(=O)CCCN1CCCC1=O
- T/C (dose: 100.0 mg/kg/injection, schedule: Q04DX003 (ip), vehicle: saline): 106 % of control
- T/C (dose: 200.0 mg/kg/injection, schedule: Q04DX003 (ip), vehicle: saline): 109 % of control
- T/C (dose: 400.0 mg/kg/injection, schedule: Q04DX003 (ip), vehicle: saline): 106 % of control

Structure (SMILES): ClC(c1ccccc1)c1ccc(Br)cc1 (centres undefined)
- T/C [3]: 105 % of control
- T/C [8]: 97 % of control
- T/C [9]: 88 % of control

Structure (SMILES): O=C1CC(NC(=O)OCc2ccccc2)C(=O)O1 (centres undefined)
- T/C (dose: 100.0 mg/kg/injection, schedule: Q01DX009 (ip), vehicle: alcohol): 111 % of control
- T/C (dose: 200.0 mg/kg/injection, schedule: Q01DX009 (ip), vehicle: alcohol): 94 % of control

Structure (SMILES): NC(N)=Nc1ccc(C(=O)Oc2ccc([N+](=O)[O-])cc2[N+](=O)[O-])cc1
- T/C [2]: 97 % of control
- T/C [3]: 91 % of control

Structure (SMILES): Cc1c2oc3c(C)ccc(C(=O)NC4C(=O)NC(C(C)C)C(=O)N5CC(C)CC5C(=O)N(C)CC(=O)N(C)C(C(C)C)C(=O)OC4C)c3nc-2c(C(=O)NC2C(=O)NC(C(C)C)C(=O)N3CC(C)CC3C(=O)N(C)CC(=O)N(C)C(C(C)C)C(=O)OC2C)c(N)c1=O (centres undefined) (I: TV[ξPro(4ξ-Me)][Sar][NMeV] / II: TV[ξPro(4ξ-Me)][Sar][NMeV]; ester I:1-I:C, II:1-II:C; linker I:N-II:N via Actinocin(9to1); configuration not given here)
- T/C (dose: 3.24 mg/kg/injection, schedule: Q04DX003 (ip), vehicle: saline + alcohol): 163 % of control
- T/C (dose: 3.6 mg/kg/injection, schedule: Q04DX003 (ip), vehicle: saline + alcohol): 123 % of control
- T/C (dose: 5.4 mg/kg/injection, schedule: Q04DX003 (ip), vehicle: saline + alcohol): 153 % of control
- T/C (dose: 9.0 mg/kg/injection, schedule: Q04DX003 (ip), vehicle: saline + alcohol): 207 % of control
- T/C (dose: 15.0 mg/kg/injection, schedule: Q04DX003 (ip), vehicle: saline + alcohol): 188 % of control
- T/C (dose: 259.0 micrograms/kg/injection, schedule: Q01DX009 (ip), vehicle: saline + alcohol): 114 % of control
- T/C (dose: 432.0 micrograms/kg/injection, schedule: Q01DX009 (ip), vehicle: saline + alcohol): 122 % of control
- T/C (dose: 720.0 micrograms/kg/injection, schedule: Q01DX009 (ip), vehicle: saline + alcohol): 118 % of control
- T/C (dose: 1200.0 micrograms/kg/injection, schedule: Q01DX009 (ip), vehicle: saline + alcohol): 123 % of control

Structure (SMILES): Cc1ccc(C)c(NC(=O)Nc2ccc(Cl)cc2)c1
- T/C (dose: 50.0 mg/kg/injection, schedule: Q01DX009 (ip), vehicle: gum acacia): 121 % of control
- T/C (dose: 100.0 mg/kg/injection, schedule: Q01DX009 (ip), vehicle: gum acacia): 92 % of control
- T/C (dose: 200.0 mg/kg/injection, schedule: Q01DX009 (ip), vehicle: gum acacia): 98 % of control

Structure (SMILES): CCC(C)C(NC=O)C(=O)O (centres undefined)
- T/C (dose: 50.0 mg/kg/injection, schedule: Q01DX009 (ip), vehicle: saline with Tween-80): 97 % of control
- T/C [5]: 95 % of control
- T/C [6]: 92 % of control
- T/C [7]: 91 % of control

Structure (SMILES): Cc1c(N)nc(C(CC(N)=O)NCC(N)C(N)=O)nc1C(=O)NC(C(=O)NC(C)C(O)CC(=O)NC(C(=O)NC(OC1OC(C)C(N)C(O)C1O)C(O)c1nc(-c2nc(C(=O)NCCCC(N)CC(=O)NCCCNCCCCN)cs2)cs1)C(C)O)C(OC1OC(CO)C(O)C(O)C1OC1OC(CO)C(O)C(OC(N)=O)C1O)c1cnc[nH]1 (centres undefined)
- T/C (dose: 0.2 mg/kg/injection, schedule: Q01DX009 (ip), vehicle: saline): 113 % of control
- T/C (dose: 0.8 mg/kg/injection, schedule: Q01DX009 (ip), vehicle: saline): 90 % of control
- T/C (dose: 1.6 mg/kg/injection, schedule: Q01DX009 (ip), vehicle: saline): 101 % of control

Structure (SMILES): CCCCN(CC)C(=S)S[Te](SC(=S)N(CC)CCCC)(SC(=S)N(CC)CCCC)SC(=S)N(CC)CCCC
- T/C [8]: 110 % of control
- T/C [10]: 100 % of control

Source: PubChem BioAssay AID192 (DTP/NCI, 2004)
